pEC50: −log10 of the molar value.

Data on 13 compounds can be found in patent US9115073B2, “1,3-diphenylpropane derivatives, preparations and uses thereof” (GENFIT, priority 2011, dated 2015).

Holding throughout (assay type): cell-based
In one assay the target is T1, hPPARalpha (Homo sapiens, UniProt Q07869).
T1 construct: Gal4-hPPARα(LBD); Gal4 (fusion partner); expressed in transfected cells; host or cells: COS-7 (monkey kidney)
T1 sequence (Q07869 239-466 limits assumed): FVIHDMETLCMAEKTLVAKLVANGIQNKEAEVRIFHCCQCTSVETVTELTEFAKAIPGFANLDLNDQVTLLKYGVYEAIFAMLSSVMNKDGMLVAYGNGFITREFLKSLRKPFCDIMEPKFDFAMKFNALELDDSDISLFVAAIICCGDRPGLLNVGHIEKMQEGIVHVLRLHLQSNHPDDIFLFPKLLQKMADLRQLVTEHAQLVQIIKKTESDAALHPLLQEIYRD
Kind of assay: Gal4-hPPARalpha transactivation assay in COS-7 cells (luciferase). Conditions: for pEC50: Gal4-hPPARα(LBD) transactivation; for Emax: COS-7, maximal relative activation vs reference, read-out: Gal4-hPPARα(LBD) TOP (% ref). The procedure:
(§1) Monkey kidney COS-7 cells were maintained in standard culture conditions (Dulbecco's modified Eagle's minimal medium: DMEM) supplemented with 10% fetal calf serum, 1% sodium pyruvate, 1% essential amino acids and 1% antibiotics at 37° C. in a humidified atmosphere of 5% C02 and 95% air. The medium was changed every 2 days. All tested compounds were dissolved in DMSO. Cells were transfected using 2 μl JetPEI™ (Polyplus transfection)/μg of DNA. Briefly, 40 μg of DNA was transfected in a 225 cm^2 culture flask of adherent COS-7 cells (respecting the 1/50 ratio between the Gal4(RE)_TkpGL3 plasmid and the plasmid coding the nuclear receptor of interest (pGal4-hPPARalpha, pGal4-hPPARgamma, pGal4-hPPARdelta, pGal4-mPPARalpha, pGal4-mPPARgamma and pGal4-mPPARdelta) or of the pGal4phi plasmid (negative control). Cells were enzymatically detached and seeded in 384 well plates at the density of 20,000 cells/well and then incubated for 4 hours at 37° C. The activation was automatically performed, by using the Genesis Freedom 200™ (Tecan), in fresh medium supplemented with 2% of synthetic serum, free of lipids (Ultroser™, Biosepra) supplemented with the tested compounds (compound of interest or reference molecules) or vehicle (DMSO 0.1%). The luciferase activity was measured with the Steady-Glo Luciferase Assay System (Promega, Madison, Wis.). All transactivation experiments were performed at least 2 times. Activation curves were realized using SigmaPlot® (version 7.0 from SPSS Inc.) software and took into account all the experimental points. SimgaPlot® was also used to fit the standard curves and then determine the specific EC50 values, maximum effect versus reference molecules and Hill slope. The Emax effect of each new ligand is represented as the ratio of the maximal induction (plateau) obtained with the new ligand and the induction obtained with the corresponding reference compound. The reference compounds for PPARalpha, PPARgamma and PPARdelta were fenofibrate (100 μM), rosiglitazone (10 μM) and GW501516 (1 μM).

Another assay has as its target T2, hPPARgamma (Homo sapiens, UniProt P37231).
T2 construct: Gal4-hPPARγ(LBD); Gal4 (fusion partner); expressed in transfected cells; host or cells: COS-7 (monkey kidney)
T2 sequence (P37231 238-503 limits assumed): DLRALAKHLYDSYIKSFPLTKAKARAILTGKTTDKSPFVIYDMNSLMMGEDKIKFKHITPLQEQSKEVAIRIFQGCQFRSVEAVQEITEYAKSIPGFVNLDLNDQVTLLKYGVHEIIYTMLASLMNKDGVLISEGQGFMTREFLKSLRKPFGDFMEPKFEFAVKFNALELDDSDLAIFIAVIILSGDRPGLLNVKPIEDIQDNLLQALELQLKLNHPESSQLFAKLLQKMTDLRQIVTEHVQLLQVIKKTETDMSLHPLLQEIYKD
Put plainly: Gal4-hPPARgamma transactivation assay in COS-7 cells (luciferase). Conditions: for pEC50: Gal4-hPPARγ(LBD) transactivation; for Emax: COS-7, maximal relative activation vs reference, read-out: Gal4-hPPARγ(LBD) TOP (% ref); for Gal4-hPPARγ(LBD) TOP (% ref): maximal relative activation vs reference. The procedure:
as §1

A further assay concerns the target T3, hPPARdelta (Homo sapiens, UniProt Q03181).
T3 construct: Gal4-hPPARδ(LBD); Gal4 (fusion partner); expressed in transfected cells; host or cells: COS-7 (monkey kidney)
T3 sequence (Q03181 211-439 limits assumed): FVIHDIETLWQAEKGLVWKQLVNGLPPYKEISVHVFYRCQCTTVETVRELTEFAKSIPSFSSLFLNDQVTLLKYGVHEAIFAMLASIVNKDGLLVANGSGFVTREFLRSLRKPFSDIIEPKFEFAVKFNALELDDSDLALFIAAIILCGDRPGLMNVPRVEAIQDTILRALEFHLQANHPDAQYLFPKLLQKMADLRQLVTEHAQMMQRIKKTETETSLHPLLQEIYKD
Kind of assay: Gal4-hPPARdelta transactivation assay in COS-7 cells (luciferase). To be noted: for pEC50: Gal4-hPPARδ(LBD) transactivation; for Emax: COS-7, maximal relative activation vs reference, read-out: Gal4-hPPARδ(LBD) TOP (% ref); for Gal4-hPPARδ(LBD) TOP (% ref): maximal relative activation vs reference. The procedure:
as §1

For `Cc1cc(C2CC2C(OCc2ccccc2)c2ccc(OC(F)(F)F)cc2)cc(C)c1OC(C)(C)C(=O)O` (single isomer, unassigned) [Cpd 11-2, 2-(4-(2-(benzyloxy(4-(trifluoromethoxy)phenyl)methyl)cyclopropyl)-2,6-dimethylphenoxy)-2-methylpropanoic acid], the results for the negative-log EC50 (pEC50) on hPPARalpha, on hPPARgamma and at hPPARdelta were 7.00, 7.64 and 6.91, respectively.
Regarding `COC(c1ccc(C(F)(F)F)cc1F)C1CC1c1cc(C)c(OC(C)(C)C(=O)O)c(C)c1` (single isomer, unassigned) [Cpd 12-1, 2-(4-(2-(methoxy(2-fluoro-4-(trifluoromethyl)phenyl)methyl)cyclopropyl)-2,6-dimethylphenoxy)-2-methylpropanoic acid], the Emax amounted to 47% at hPPARalpha, 71% on hPPARgamma and 89% on hPPARdelta. Also, the results for the pEC50 at hPPARalpha, at hPPARgamma and at hPPARdelta were 7.28, 7.92 and 8.15, respectively.
In the case of `COC(c1ccc(C(F)(F)F)cc1F)C1CC1c1cc(C)c(OC(C)(C)C(=O)O)c(C)c1` (single isomer, unassigned) [Cpd 12-2, 2-(4-(2-(methoxy(2-fluoro-4-(trifluoromethyl)phenyl)methyl)cyclopropyl)-2,6-dimethylphenoxy)-2-methylpropanoic acid], the pEC50 is 7.05 at hPPARalpha, 8.52 on hPPARgamma and 7.89 at hPPARdelta.
Turning to `COC(c1ccccc1OC(F)(F)F)C1CC1c1cc(C)c(OC(C)(C)C(=O)O)c(C)c1` (single isomer, unassigned) [Cpd 13-1, 2-(4-(2-(methoxy(2-(trifluoromethyloxy)phenyl)methyl)cyclopropyl)-2,6-dimethylphenoxy)-2-methylpropanoic acid], the Emax was found to be 26% on hPPARalpha, 72% at hPPARgamma and 59% at hPPARdelta. The negative-log EC50 (pEC50) at hPPARalpha was 6.19; at hPPARgamma, 7.14; at hPPARdelta it was 6.48.
In the case of `COC(c1ccccc1OC(F)(F)F)C1CC1c1cc(C)c(OC(C)(C)C(=O)O)c(C)c1` (single isomer, unassigned) [Cpd 13-2, 2-(4-(2-(methoxy(2-(trifluoromethyloxy)phenyl)methyl)cyclopropyl)-2,6-dimethylphenoxy)-2-methylpropanoic acid], the pEC50 on hPPARalpha is 6.21; on hPPARgamma, 8.05; on hPPARdelta, 6.67.
In the case of `COC(c1ccc(OC(F)(F)F)cc1)C1CC1c1cc(C)c(OC(C)(C)C(=O)O)c(C)c1` (single isomer, unassigned) [Cpd 14-1, 2-(4-(2-(methoxy(4-(trifluoromethoxy)phenyl)methyl)cyclopropyl)-2,6-dimethylphenoxy)-2-methylpropanoic acid], the Emax at hPPARalpha was 60%. Further, the results for the pEC50 on hPPARalpha, on hPPARgamma and on hPPARdelta were 7.49, 7.60 and 8.15, respectively.
Consider `COC(c1ccc(OC(F)(F)F)cc1)C1CC1c1cc(C)c(OC(C)(C)C(=O)O)c(C)c1` (single isomer, unassigned) [Cpd 14-1-1, 2-(4-(2-(methoxy(4-(trifluoromethoxy)phenyl)methyl)cyclopropyl)-2,6-dimethylphenoxy)-2-methylpropanoic acid], for which the values for the pEC50 at hPPARalpha, at hPPARgamma and at hPPARdelta were 6.68, 7.09 and 7.57, respectively. In addition, the “Gal4-hPPARα(LBD) TOP (% ref)” value at hPPARalpha (maximal relative activation vs reference, listed as cpd 14-1-1) stood at 43 % ref. In addition, the “Gal4-hPPARγ(LBD) TOP (% ref)” value at hPPARgamma (listed as cpd 14-1-1) was 78 % ref. Further, the “Gal4-hPPARδ(LBD) TOP (% ref)” value at hPPARdelta (listed as cpd 14-1-1) came out at 67 % ref.
`COC(c1ccc(OC(F)(F)F)cc1)C1CC1c1ccc(OC(C)(C)C(=O)O)c(C(C)C)c1` (single isomer, unassigned) [Cpd 15-1, 2-(2-isopropyl-4-(2-(methoxy(4-(trifluoromethoxy)phenyl)methyl)cyclopropyl)phenoxy)-2-methylpropanoic acid]: the Emax on hPPARalpha was found to be 24%; at hPPARgamma, 66%; at hPPARdelta, 92%. Moreover, the values for the pEC50 on hPPARalpha, on hPPARgamma and on hPPARdelta were 6.35, 7.18 and 6.98, respectively.
On to `COC(c1ccc(OC(F)(F)F)cc1)C1CC1c1ccc(OC(C)(C)C(=O)O)c(C(C)C)c1` (single isomer, unassigned) [Cpd 15-2, 2-(2-isopropyl-4-(2-(methoxy(4-(trifluoromethoxy)phenyl)methyl)cyclopropyl)phenoxy)-2-methylpropanoic acid], for which the negative logarithm of the EC50 (pEC50) at hPPARalpha was 6.84; on hPPARgamma, 7.34; on hPPARdelta it was 6.91.
Turning to `COC(c1ccc(C(F)(F)F)cc1C(F)(F)F)C1CC1c1cc(C)c(OC(C)(C)C(=O)O)c(C)c1` (single isomer, unassigned) [Cpd 16-1, 2-(4-(2-((2,4-bis(trifluoromethyl)phenyl)(methoxy)methyl)cyclopropyl)-2,6-dimethylphenoxy)-2-methylpropanoic acid], the Emax on hPPARalpha turned out to be 40%; at hPPARgamma, 80%; on hPPARdelta, 60%. For the same compound, the results for the negative logarithm of the EC50 (pEC50) at hPPARalpha, on hPPARgamma and at hPPARdelta were 6.97, 7.85 and 7.36, respectively.
On to `COC(c1ccc(C(F)(F)F)cc1C(F)(F)F)C1CC1c1cc(C)c(OC(C)(C)C(=O)O)c(C)c1` (single isomer, unassigned) [Cpd 16-2, 2-(4-(2-((2,4-bis(trifluoromethyl)phenyl)(methoxy)methyl)cyclopropyl)-2,6-dimethylphenoxy)-2-methylpropanoic acid], for which the figures for the pEC50 on hPPARalpha, at hPPARgamma and on hPPARdelta were 7.30, 8.70 and 7.92, respectively.
As to `COC(c1ccc(OC(F)(F)F)cc1)C1CC1c1cc(C)c(OC(C)(C)C(=O)O)c(C)c1` (centres unmarked) [Cpd 14-2-1, 2-(4-(2-(methoxy(4-(trifluoromethoxy)phenyl)methyl)cyclopropyl)-2,6-dimethylphenoxy)-2-methylpropanoic acid], the results for the Emax on hPPARalpha and on hPPARgamma were 44% and 90%, respectively. Moreover, the negative-log EC50 (pEC50) was 7.30 at hPPARalpha (listed as cpd 14-2-1), 7.80 on hPPARgamma and 7.72 at hPPARdelta (listed as cpd 14-2-1). The “Gal4-hPPARδ(LBD) TOP (% ref)” value at hPPARdelta (listed as cpd 14-2-1) was found to be 78 % ref.
On to `COC(c1ccc(OC(F)(F)F)cc1)C1CC1c1cc(C)c(OC(C)(C)C(=O)O)c(C)c1` (centres unmarked) [Cpd 14-2-2, 2-(4-(2-(methoxy(4-(trifluoromethoxy)phenyl)methyl)cyclopropyl)-2,6-dimethylphenoxy)-2-methylpropanoic acid], for which the negative-log EC50 (pEC50) is 7.77 on hPPARalpha (listed as cpd 14-2-2) and 7.23 at hPPARdelta (listed as cpd 14-2-2). For the same compound, the “Gal4-hPPARγ(LBD) TOP (% ref)” value on hPPARgamma (listed as cpd 14-2-2) stood at 72 % ref. The “Gal4-hPPARδ(LBD) TOP (% ref)” value on hPPARdelta (listed as cpd 14-2-2) stood at 57 % ref.
